test system: HepG2 viability, CellTiter-Glo ATP luminescence, 72 h; assay: HepG2 cell cytotoxicity, dose response, cytotoxicity control, CellTiter-Glo luminescence, cherry-pick, set 2 (AID 743395)

Row | SMILES | AC35 [µM]
1 | CC(C)C[C@H]1CN([C@@H](Cc2ccc(O)cc2)CN2CCC[C@H]2CN2C(=O)C(=O)NC[C@@H]2Cc2ccccc2)C(=O)C(=O)N1CC1CCCCC1 | 15
2 | Cc1cc2c(cc1S(=O)(=O)Nc1ccc(F)cc1)n(C)c(=O)c(=O)n2C | 18.2
3 | COc1ccc2c3c(n(C)c2c1)[C@H](CO)N(C(=O)C1CC1)CC31CCN(Cc2cccc(F)c2)CC1 | 4.68
4 | CCOc1ccc(C)cc1S(=O)(=O)n1cnc2ccccc21 | 11.7
5 | CCCCNc1c(-c2ccc(SC(C)CC)c(OC)c2)nc2ccc(C)cn12 (configuration not stated) | 13.6
6 | COc1ccc(C2=Nn3c(nnc3-c3ccccc3OC)SC2)cc1OC1CCOC1 (configuration not stated) | 7.54
7 | O=C(NCCOc1ccccc1)c1cc([N+](=O)[O-])ccc1N1CCOCC1 | 6.79
8 | N#CC1=C(N)Oc2cc(N)ccc2C1c1cccc(F)c1 (configuration not stated) | 6.38
9 | COc1ccc(S(=O)(=O)N2CC[C@@H]3[C@@H](CO)Nc4ccc(-c5cccc(C#N)c5)cc4[C@@H]32)cc1 | 14
10 | Cc1cccc(NC(=S)N/N=C/c2cccc(O)c2)c1C | 12.2
11 | COc1ccc(NC(=O)C2(C)Cc3c(-c4cccc(NC(C)=O)c4)ccnc3O2)cc1 (configuration not stated) | 4.15
12 | C=C1C(=O)O[C@@H]2C[C@@H](C)[C@@H]3C=CC(=O)[C@@]3(C)[C@@H](O)[C@H]12 | 2.99
13 | COc1cccc(-c2ccc(C3[C@@H]4CN(S(=O)(=O)c5cccc(OC)c5)C[C@H]3N4)cc2)c1 (some centres not stated) | 8.91
14 | Cc1cccc(N2CCN(C(=O)c3c(-c4ccccc4)noc3C)CC2)c1C | 4.42
15 | COc1ccc(CNC(=O)c2c(C)oc3c2C(=O)c2ccccc2C3=O)cc1 | 2.36
16 | C/C(=N\Nc1ncnc2sc(C)c(C)c12)c1ccccn1 | 0.572
17 | Cc1ccnc2c1ccc1cccnc12 | 2.98
18 | O=C1c2cccc3c(O)ccc(c23)C(=O)N1Cc1ccco1 | 15.6
19 | O=C(OCc1ccc(Br)cc1)c1cc([N+](=O)[O-])ccc1N1CCOCC1 | 10.8
20 | CO[C@@]12[C@@H]3N[C@@H]3CN1C1=C(C(=O)C(N)=C(C)C1=O)[C@@H]2COC(N)=O | 9.61
21 | Cc1cccc(NS(=O)(=O)c2ccc(-c3cnc(C4CC4)o3)cc2)c1 | 5.11
22 | COc1cc(/C=C2/SC(=S)N(Cc3ccccc3)C2=O)cc(Cl)c1O | 12.5
23 | CN(Cc1ccccc1)S(=O)(=O)c1ccc(NC(=S)NC(=O)C2CCCC2)cc1 | 9.62
24 | COc1cccc(N2CCN(C(=O)c3ccc(CS(=O)c4ccc(C)cc4)o3)CC2)c1 (configuration not stated) | 0.833
25 | O=C(c1cccc(F)c1)N1CC(=O)N2[C@@H](CO)[C@@H](c3ccc(C#Cc4ccc(F)cc4)cc3)[C@@H]2C1 | 17.9
26 | COc1ccc(-c2cc(C(F)F)n3ncc(C(=O)N4CCc5ccccc54)c3n2)cc1 | 9.81

Row | SMILES | AC35 [µM]
27 | COc1ccc(Nc2nc(-c3sc(C)nc3C)cs2)cc1 | 1.29
28 | Cc1ccc2[nH]c(C(=O)N/N=C/c3ccccc3O)c(C)c2c1 | 2.41
29 | COc1ccc(C(=O)c2ccc(N(C)C)cc2)c(OC)c1 | 14.9
30 | COc1ccc(-c2csc(NC(=S)NC(=O)/C=C/c3ccco3)n2)cc1OC | 14.3
31 | Cc1cccc(N2CCN(Cc3cn(C)nc3-c3ccccc3F)CC2)n1 | 3.97
32 | CC1(S(=O)(=O)O)CC(=O)c2ccccc2C1=O (configuration not stated) | 20.1
33 | COc1ccccc1N=C1SC(C(=O)Nc2cccc(Cl)c2Cl)C(N)=C1C(N)=O (configuration not stated) | 18.4
34 | CC(=O)Nc1sc2c(c1-c1nc3ccccc3s1)CN(C(C)C)CC2 | 3.4
35 | COC(=O)/C=C/c1ccccc1S(=O)(=O)N(Cc1ccccc1)Cc1ccco1 | 15.4
36 | CCN(CC)CCCNc1ccc2ncn3c4ccc(O)cc4c(=O)c1c23 | 1.03
37 | COc1ccc(-c2ccc3c(c2)[C@H]2[C@H](CCN2S(=O)(=O)c2ccc(OC)cc2)[C@@H](CO)N3C)cc1 | 18.2
38 | O=C(N/N=C/c1c(O)ccc2ccccc12)c1ccc(CO)nc1 | 5.89
39 | Cc1cc(/C=N/n2c(COc3ccccc3C)nc3ccccc3c2=O)c(O)c([N+](=O)[O-])c1 | 8.05
40 | COc1cccc(Nc2nc(-c3sc(NC(=O)c4ccccc4)nc3C)cs2)c1 | 6.58
41 | Cc1occc1C(=O)N/N=C/c1c(O)ccc2ccccc12 | 6.44
42 | CCOC(=O)c1sc(Nc2nc(C)cc(C)n2)nc1C | 11.3
43 | CC(C)C[C@H]1CN([C@@H](CC(C)C)CN2CCC[C@@H]2CN2C(=S)NC[C@@H]2Cc2ccc(O)cc2)C(=S)N1CCc1ccccc1 | 19.2
44 | O=C(N/N=C/c1cc2c3c(c1O)CCCN3CCC2)c1ccccc1O | 0.751
45 | O=C(Nc1ccc(OC(F)(F)F)cc1)c1ccc2c(c1)no[n+]2[O-] | 17.6
46 | Cc1ccccc1-c1nc(CS(=O)(=O)CC(=O)NCc2ccccc2)c(C)o1 | 18.4
47 | CCOc1ccc(C(=O)O/N=C(\N)c2ccccn2)cc1 | 16.5
48 | O=C(c1cc(-c2ccncc2)nc2c(Cl)cccc12)N1CCN(c2ccccc2F)CC1 | 8.73
49 | COc1ccc2c(c1)sc(N)[n+]2Cc1cc(C)cc2cccnc12 | 12.4
50 | Cc1ccc(-c2csc3ncn(CC#N)c(=O)c23)cc1C | 17.9
51 | CCCC(=O)Nc1nc2ccc(NC(=O)c3c(F)c(F)c(OC)c(F)c3F)cc2s1 | 7.54
52 | COc1ccc(NC(=O)c2nc(C)c(C3(C)CC(c4ccccc4)=NO3)s2)cc1 (configuration not stated) | 17.1

Row | SMILES | AC35 [µM]
53 | COc1cccc2c1C(=O)c1c(O)c3c(c(O)c1C2=O)C[C@@](O)(C(C)=O)C[C@@H]3O[C@H]1C[C@H](N)[C@H](O)[C@H](C)O1 | 0.156
54 | Cc1ccc(C2NC(=O)c3ccccc3N2)c(C)c1 (configuration not stated) | 13.8
55 | CC(C)(C)c1ccc(OCC(=O)Nc2ccc3c4c(cccc24)C(=O)NC3=O)cc1 | 18.5
56 | CCN(CC)CCCNc1nc2ccccc2c2[nH]c3ccc(OC)cc3c12 | 2.39
57 | COc1cccc(Sc2ccccc2/C=N/NC(N)=O)c1 | 9.98
58 | Cc1cnc(NC(=O)c2ccc3c(c2)OCCO3)s1 | 4.22
59 | COc1cccc(C(=O)Nc2sc3c(c2C#N)CCN(C(C)=O)C3)c1 | 11.6
60 | O=c1cc(-c2ccc(O)c(O)c2)oc2cc(O)cc(O)c12 | 19
61 | CC(C)C[C@H](NC(=O)c1nc[nH]c1C(=O)N1CCN(C(=O)OC(C)(C)C)CC1)C(=O)OC(C)(C)C | 14.6
62 | Cc1ccnc(N2C(=O)c3cccc4c([N+](=O)[O-])ccc(c34)C2=O)c1 | 14.9
63 | O=C(O)c1ccccc1-c1c2cc(I)c(=O)c(I)c-2oc2c(I)c(O)c(I)cc12 | 8.34
64 | COc1cccc2c1C(=O)c1c(O)c3c(c(O)c1C2=O)CC(O)(C(C)=O)CC3OC1CC(N(C)C)C(O)C(C)O1 (configuration not stated) | 0.0849
65 | COc1ccccc1C#Cc1ccc2c(c1)O[C@@H](CN(C)Cc1cccnc1)[C@H](C)CN([C@H](C)CO)S2(=O)=O | 22.4
66 | O=C(NCCOc1ccccc1F)c1cc([N+](=O)[O-])ccc1N1CCOCC1 | 13.6
67 | Cc1ccc(C(=O)NC(=S)NNC(=O)c2ccccc2O)cc1 | 17.2
68 | O=c1ccc2[n+]([O-])c3ccc(O)cc3oc-2c1 | 13.2
69 | Cn1cccc1/C=C1\SC(=Nc2ccccc2)NC1=O | 4.22
70 | Cc1ccc(Nc2nc(-c3sc(C)nc3C)cs2)cc1 | 3.7
71 | COc1ccc(C(=O)OCC(=O)N2C(C)CCCC2C)cc1S(=O)(=O)N1CCOCC1 (configuration not stated) | 18.7
72 | O=c1ccc2c(-c3ccccc3)c3ccc(O)cc3oc-2c1 | 17.8
73 | Cc1ccc(-c2ccc([C@H]3[C@@H](CO)N4CCCCN(C(=O)Nc5cccc(F)c5)C[C@H]34)cc2)cc1 | 11
74 | CC(C)(C)c1cc(C(=O)NN)n(Cc2ccc(Cl)cc2Cl)n1 | 18.7
75 | C[C@@H]1CN([C@@H](C)CO)C(=O)Cc2cc(N(C)C)ccc2O[C@@H]1CN(C)Cc1ccc(C(=O)Nc2ccccc2N)cc1 | 11.5
76 | Cc1noc(C)c1COc1ccc(C(=O)NNC(=O)c2ccccc2)cc1 | 12.2
77 | COc1ccc(C2=Nn3c(nnc3-c3ccccc3F)SC2)cc1OC1CCCC1 | 11.1
78 | O=C(C[C@@H]1CC[C@@H]2[C@H](COC[C@H](O)CN2Cc2ccc(Oc3ccccc3)cc2)O1)N1CCN(c2ccccc2)CC1 | 7.84

Row | SMILES | AC35 [µM]
79 | CC(=O)N1CCc2cc(S(=O)(=O)N3c4ccccc4CC3C)ccc21 (configuration not stated) | 10.2
80 | COc1cccc(S(=O)(=O)N2C[C@@H]3N[C@H](C2)C3c2ccc(-c3cccc(C)c3)cc2)c1 (some centres not stated) | 12
81 | COc1cc(OC)cc(C(=O)OCC(=O)NC(c2ccccc2)c2ccccc2)c1 | 16.2
82 | COc1cc(/C=C2/SC(=Nc3ccc(O)cc3)NC2=O)cc(OC)c1O | 14.7
83 | Cc1ccc(N(C)S(=O)(=O)c2ccc(-c3cnc(C4CC4)o3)cc2)cc1 | 8.88
84 | COc1ccccc1CNC(=O)Nc1nc(C(N)Cc2ccc(Cl)cc2)cs1 (configuration not stated) | 9.79
85 | c1ccc2c(NCCCN3CCOCC3)c3ccccc3nc2c1 | 2.78
86 | Nc1[nH]c(C(=O)c2ccccc2)c(-c2ccccc2C(F)(F)F)c1C(=O)NCCc1c[nH]c2ccccc12 | 22.4
87 | O=c1c2ccccc2oc2cc(-c3ccc4[nH]ccc4c3)ccc12 | 4.72
88 | O=C(c1cccc(F)c1)N1CC[C@@H]2[C@H](CO)Nc3ccc(-c4ccccc4F)cc3[C@@H]21 | 18.1
89 | CN(C)c1ccc(-[n+]2c(-c3ccccc3)cc(-c3ccccc3)cc2-c2ccccc2)cc1 | 3.01
90 | COc1ccc2c3c([nH]c2c1)[C@H](CO)N(C(=O)C1CCOCC1)CC31CCN(Cc2cccc(F)c2)CC1 | 2.74
91 | COc1c(C=O)c2c(c(OC)c1OC)-c1ccc(OC)c(=O)cc1C(NC(C)=O)CC2 (configuration not stated) | 3.12
92 | COc1ccccc1N1CCN(C(=O)c2ccc(-c3ccc(Cl)cc3)o2)CC1 | 3.02
93 | CCCC(=O)NC1=C(Cl)C(=O)c2ccccc2C1=O | 9.76
94 | CN1c2ccc(-c3ccc(F)cc3)cc2[C@H]2[C@H](CCN2S(=O)(=O)c2ccc(F)cc2)[C@H]1CO | 19.5
95 | COC(=O)c1cn(NC(=O)c2cc([N+](=O)[O-])ccc2F)c(=O)c2ccccc12 | 0.521
96 | NC(=S)NN=Cc1nccc2c(N)cccc12 | 4.16
97 | C[C@@H]1CCCCO[C@H](CN(C)Cc2ccc(Cl)c(Cl)c2)[C@@H](C)CN([C@@H](C)CO)C(=O)c2cc(NS(=O)(=O)c3ccc(Cl)cc3)ccc2O1 | 10.6
98 | COc1cc(C(=O)Nc2ccc3c(c2)ncn3C)cc(OC)c1OC | 14.5
99 | Cc1ccc(OCCNC(=O)c2cccc(S(=O)(=O)NCc3ccccc3)c2)cc1 | 15.2
100 | COc1ccc(OC)c2[nH]c(C(=O)N/N=C/c3ccccc3O)cc12 | 3.77
101 | CN(C)CCCN(C(=O)c1ccco1)c1nc(-c2ccc(Cl)cc2)cs1 | 22.2
102 | CCCC(=O)Nc1ccc2c(c1)nc(CN1CCN(C(=O)OCC)CC1)n2CC | 18.9
